Assays:
[1] = Activity at concentration of 1428 uM relative to FPS for 30 min; type: functional
[2] = Activity at concentration of 125 uM relative to HexPS for 5 min; type: functional
[3] = Activity at concentration of 357 uM relative to FPS for 60 min; type: functional
[4] = Activity at concentration of 250 uM relative to HexPS for 5 min; type: functional
[5] = Activity as substrate for UPS relative to control; type: functional
[6] = Activity at concentration of 714 uM relative to FPS for 30 min; type: functional
[7] = Activity at concentration of 250 uM relative to HexPS for 15 min; type: functional
Micrococcus luteus [8] = test: Percent inhibition against prenyltransferases of hexaprenyl diphosphate synthase (Hex PS) at concentration of 250 uM
Micrococcus luteus [9] = test: Percent inhibition against prenyltransferases of hexaprenyl diphosphate synthase (Hex PS) at concentration of 50 uM
[10] = Activity at concentration of 125 uM relative to HexPS for 15 min; type: functional
Micrococcus luteus [11] = test: Percent inhibition against prenyltransferases of hexaprenyl diphosphate synthase (Hex PS) at concentration of 125 uM
[12] = system: Farnesyl pyrophosphate synthase (Geobacillus stearothermophilus); test: Percent inhibition against prenyltransferases of farnesyl diphosphate synthase (FPS) at concentration of 50 uM
[13] = system: Geobacillus stearothermophilus; test: Percent inhibition against prenyltransferases of Undecaprenyl pyrophosphate synthetase (UPS) at concentration of 125 uM
[14] = Activity as substrate for Hex PS relative to control; type: functional
[15] = Activity at concentration of 357 uM relative to FPS for 120 min; type: functional
[16] = system: Geobacillus stearothermophilus; test: Percent inhibition against prenyltransferases of Undecaprenyl pyrophosphate synthetase (UPS) at concentration of 16 uM
[17] = system: Geobacillus stearothermophilus; test: Percent inhibition against prenyltransferases of Undecaprenyl pyrophosphate synthetase (UPS) at concentration of 32 uM
[18] = system: Farnesyl pyrophosphate synthase (Geobacillus stearothermophilus); test: Percent inhibition against prenyltransferases of farnesyl diphosphate synthase (FPS) at concentration of 250 uM
[19] = system: Farnesyl pyrophosphate synthase (Geobacillus stearothermophilus); test: Percent inhibition against prenyltransferases of farnesyl diphosphate synthase (FPS) at concentration of 125 uM
[20] = Activity as substrate for FPS relative to control; type: functional
[21] = Activity at concentration of 357 uM relative to FPS for 30 min; type: functional
[22] = system: Farnesyl pyrophosphate synthase (Geobacillus stearothermophilus); test: Percent inhibition against farnesyl diphosphate synthase (FPS) at concentration of 250 uM

| Compound | Relative activity [1] | Relative activity [2] | Relative activity [3] | Relative activity [4] | Relative activity [5] | Relative activity [6] | Relative activity [7] | inhibition (Micrococcus luteus [8]) | inhibition (Micrococcus luteus [9]) | Relative activity [10] | inhibition (Micrococcus luteus [11]) | inhibition [12] | inhibition [13] | Relative activity [14] | Relative activity [15] | inhibition [16] | inhibition [17] | inhibition [18] | inhibition [19] | Relative activity [20] | further results |
| --- | --- | --- | --- | --- | --- | --- | --- | --- | --- | --- | --- | --- | --- | --- | --- | --- | --- | --- | --- | --- | --- |
| C/C(=C\COP(=O)(O)OP(=O)(O)O)CC/C=C(\C)COc1ccc(C(=O)c2ccccc2)cc1 | 36.2 | 30.7 | 48.1 | 9.8 | 49.1 | 64.4 | 4.3 | 86.4% | 14.4% | 9.2 | 49.5% | 84.4% | 63% | 46.4 | 17 | 29% | 53% | 95.5% | 94.4% | 0.78 | Relative activity [21]: 67.3 |
| C/C(=C\COP(=O)(O)OP(=O)(O)O)COc1ccc(C(=O)c2ccccc2)cc1 | – | – | – | – | – | – | – | 37% | 8.8% | – | 23.4% | – | 57% | 5.7 | – | 12.5% | 17.5% | 27.6% | 24.5% | 0.06 | – |
| C/C(=C\COP(=O)(O)OP(=O)(O)O)COc1cccc(C(=O)c2ccccc2)c1 | – | – | – | – | – | – | – | 10.6% | 3.1% | – | 3.5% | – | 68% | 0 | – | 12.5% | 22.5% | – | 14.6% | 0.22 | inhibition [22]: 19.8% |
| C/C(=C\COP(=O)(O)OP(=O)(O)O)CC/C=C(\C)COc1cccc(C(=O)c2ccccc2)c1 | 75.9 | 32.5 | 66.6 | 5.5 | 55.7 | 61.2 | 1.9 | 80.5% | 9.2% | 10.8 | 37% | 86% | 63% | 21.6 | 37 | 38% | 58% | 96.1% | 94.9% | 1.83 | Relative activity [21]: 62.2 |

Source: ChEMBL document CHEMBL1130495, “Benzoylphenoxy analogs of isoprenoid diphosphates as photoactivatable substrates for bacterial prenyltransferases” (Bioorg Med Chem Lett, 1997)
